Laboratory results taken from patent US20140155389A1, “BICYCLIC INHIBITORS OF ALK” (ABBVIE INC., priority 2011, published 2014).

target: T1, ALK (Homo sapiens, UniProt Q9UM73); assay: ALK kinase assay (HTRF); format: biochemical; conditions: apparent Ki from IC50 by Cheng-Prusoff; ALK (Millipore) 3 nM or 4 nM, 50 μM ATP, 1 h at room temperature; read-out: HTRF_ALK Human - Ki
T1 construct: purchased Millipore
T1 sequence (Q9UM73 19-1620): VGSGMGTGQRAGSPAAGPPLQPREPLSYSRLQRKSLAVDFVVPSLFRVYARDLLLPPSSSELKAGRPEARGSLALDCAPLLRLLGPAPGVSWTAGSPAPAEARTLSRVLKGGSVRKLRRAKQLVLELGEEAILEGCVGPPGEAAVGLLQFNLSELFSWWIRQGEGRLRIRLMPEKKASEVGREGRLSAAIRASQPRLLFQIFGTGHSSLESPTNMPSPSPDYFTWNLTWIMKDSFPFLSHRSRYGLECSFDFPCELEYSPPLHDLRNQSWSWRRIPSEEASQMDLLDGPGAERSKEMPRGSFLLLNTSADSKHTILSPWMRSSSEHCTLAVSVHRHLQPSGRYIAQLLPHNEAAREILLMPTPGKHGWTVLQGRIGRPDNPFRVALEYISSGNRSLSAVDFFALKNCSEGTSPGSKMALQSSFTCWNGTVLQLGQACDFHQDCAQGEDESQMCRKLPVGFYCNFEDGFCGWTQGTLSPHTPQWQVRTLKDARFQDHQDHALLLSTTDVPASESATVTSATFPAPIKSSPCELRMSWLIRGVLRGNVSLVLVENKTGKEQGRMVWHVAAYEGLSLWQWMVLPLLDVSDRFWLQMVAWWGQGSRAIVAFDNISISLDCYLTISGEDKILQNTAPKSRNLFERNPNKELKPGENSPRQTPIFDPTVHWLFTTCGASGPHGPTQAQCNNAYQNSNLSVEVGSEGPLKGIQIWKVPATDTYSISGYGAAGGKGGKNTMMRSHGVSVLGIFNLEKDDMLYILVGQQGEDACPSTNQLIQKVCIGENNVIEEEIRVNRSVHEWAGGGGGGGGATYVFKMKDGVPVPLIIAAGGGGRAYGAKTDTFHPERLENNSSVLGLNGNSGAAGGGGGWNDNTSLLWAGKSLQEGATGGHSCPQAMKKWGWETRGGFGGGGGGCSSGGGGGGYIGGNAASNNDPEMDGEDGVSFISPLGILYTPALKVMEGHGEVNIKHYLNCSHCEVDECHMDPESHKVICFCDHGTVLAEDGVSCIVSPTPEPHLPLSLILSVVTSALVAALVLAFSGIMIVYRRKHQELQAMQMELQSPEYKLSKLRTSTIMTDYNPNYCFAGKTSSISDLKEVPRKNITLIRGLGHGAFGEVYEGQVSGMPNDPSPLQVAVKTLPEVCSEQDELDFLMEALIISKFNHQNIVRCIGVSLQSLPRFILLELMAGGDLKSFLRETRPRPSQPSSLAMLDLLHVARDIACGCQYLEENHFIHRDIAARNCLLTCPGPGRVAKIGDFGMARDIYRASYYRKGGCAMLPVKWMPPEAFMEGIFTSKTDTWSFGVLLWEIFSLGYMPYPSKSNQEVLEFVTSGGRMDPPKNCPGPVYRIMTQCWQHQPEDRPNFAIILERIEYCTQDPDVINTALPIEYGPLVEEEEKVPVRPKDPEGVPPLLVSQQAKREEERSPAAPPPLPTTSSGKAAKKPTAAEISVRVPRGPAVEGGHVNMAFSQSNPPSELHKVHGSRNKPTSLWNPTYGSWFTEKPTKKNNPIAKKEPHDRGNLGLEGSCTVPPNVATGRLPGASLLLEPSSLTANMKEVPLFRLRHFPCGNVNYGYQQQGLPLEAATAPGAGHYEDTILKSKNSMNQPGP

Row | Compound | Ki [nM]
1 | COc1cc(N2CCNCC2)ccc1Nc1nc(Cc2c(Cl)cccc2Cl)cc2c1C(=O)NCN2 [Example 1, 7-(2,6-dichlorobenzyl)-5-{[2-methoxy-4-(piperazin-1-yl)phenyl]amino}-2,3-dihydropyrido[4,3-d]pyrimidin-4(1H)-one] | 11
2 | COc1cc(N2CCNCC2)ccc1Nc1nc(Cc2c(Cl)cccc2Cl)cc2cnnc(O)c12 [Example 2, 7-(2,6-dichlorobenzyl)-5-{[2-methoxy-4-(piperazin-1-yl)phenyl]amino}pyrido[3,4-d]pyridazin-4-ol] | 1.4
3 | COc1cc(N2CCNCC2)ccc1Nc1cc(Cc2c(Cl)cccc2Cl)nc2c1C(=O)NCCN2 [Example 3, 8-(2,6-dichlorobenzyl)-6-{[2-methoxy-4-(piperazin-1-yl)phenyl]amino}-1,2,3,4-tetrahydro-5H-pyrido[2,3-e][1,4]diazepin-5-one] | 660
4 | O=C1NCCNc2nc(Cc3c(Cl)cccc3Cl)cc(Nc3ccc(N4CCNCC4)cc3)c21 [Example 4, 8-(2,6-dichlorobenzyl)-6-{[4-(piperazin-1-yl)phenyl]amino}-1,2,3,4-tetrahydro-5H-pyrido[2,3-e][1,4]diazepin-5-one] | 940
5 | Oc1nncc2cc(Cc3c(Cl)cccc3Cl)nc(Nc3ccc(N4CCNCC4)cc3)c12 [Example 5, 7-(2,6-dichlorobenzyl)-5-{[4-(piperazin-1-yl)phenyl]amino}pyrido[3,4-d]pyridazin-4-ol] | 1
6 | O=C1NCCNc2cc(Cc3c(Cl)cccc3Cl)nc(Nc3ccc(N4CCNCC4)cc3)c21 [Example 6, 8-(2,6-dichlorobenzyl)-6-{[4-(piperazin-1-yl)phenyl]amino}-1,2,3,4-tetrahydro-5H-pyrido[4,3-e][1,4]diazepin-5-one] | 602
7 | Cc1cc(Nc2nc(Cc3c(Cl)cccc3Cl)cc3cn[nH]c(=O)c23)ccc1N1CCNCC1 [Example 7, 7-(2,6-dichlorobenzyl)-5-{[3-methyl-4-(piperazin-1-yl)phenyl]amino}pyrido[3,4-d]pyridazin-4(3H)-one] | 1
8 | COc1cc(N2CCN(C3CCCCC3)CC2)ccc1Nc1nc(Cc2c(Cl)cccc2Cl)cc2cn[nH]c(=O)c12 [Example 8, 5-{[4-(4-cyclohexylpiperazin-1-yl)-2-methoxyphenyl]amino}-7-(2,6-dichlorobenzyl)pyrido[3,4-d]pyridazin-4(3H)-one] | > 470
9 | COc1cc(N2CCN(C(=O)c3ccccc3)CC2)ccc1Nc1nc(Cc2c(Cl)cccc2Cl)cc2cnnc(O)c12 [Example 9, [4-(4-{[7-(2,6-dichlorobenzyl)-4-hydroxypyrido[3,4-d]pyridazin-5-yl]amino}-3-methoxyphenyl)piperazin-1-yl](phenyl)methanone] | > 470
10 | COc1cc(N2CCNCC2)ccc1Nc1nc(Nc2c(Cl)cccc2Cl)cc2cnnc(O)c12 [Example 10, 7-[(2,6-dichlorophenyl)amino]-5-{[2-methoxy-4-(piperazin-1-yl)phenyl]amino}pyrido[3,4-d]pyridazin-4-ol] | 2
11 | COc1cc(N2CCN(S(=O)(=O)C(C)C)CC2)ccc1Nc1nc(Cc2c(Cl)cccc2Cl)cc2cnnc(O)c12 [Example 11, 7-(2,6-dichlorobenzyl)-5-({2-methoxy-4-[4-(propan-2-ylsulfonyl)piperazin-1-yl]phenyl}amino)pyrido[3,4-d]pyridazin-4-ol] | > 4700
12 | COc1cc(N2CCN(C(=O)CN(C)C)CC2)ccc1Nc1nc(Cc2c(Cl)cccc2Cl)cc2cnnc(O)c12 [Example 12, 1-[4-(4-{[7-(2,6-dichlorobenzyl)-4-hydroxypyrido[3,4-d]pyridazin-5-yl]amino}-3-methoxyphenyl)piperazin-1-yl]-2-(dimethylamino)ethanone] | 3
13 | O=c1[nH]ncc2cc(Cc3c(Cl)cccc3Cl)nc(Nc3ccc(N4CCNCC4)c(Cl)c3)c12 [Example 13, 5-{[3-chloro-4-(piperazin-1-yl)phenyl]amino}-7-(2,6-dichlorobenzyl)pyrido[3,4-d]pyridazin-4(3H)-one] | 1
14 | O=c1[nH]ncc2cc(Cc3c(Cl)cccc3Cl)nc(Nc3ccc(N4CCNCC4)cn3)c12 [Example 14, 7-(2,6-dichlorobenzyl)-5-{[5-(piperazin-1-yl)pyridin-2-yl]amino}pyrido[3,4-d]pyridazin-4(3H)-one] | 13
15 | COc1cc(N2CCN(C3CCN(C)CC3)CC2)ccc1Nc1nc(Cc2c(Cl)cccc2Cl)cc2cn[nH]c(=O)c12 [Example 15, 7-(2,6-dichlorobenzyl)-5-({2-methoxy-4-[4-(1-methylpiperidin-4-yl)piperazin-1-yl]phenyl}amino)pyrido[3,4-d]pyridazin-4(3H)-one] | 3
16 | COc1cc(N2CCN(CCC(C)C)CC2)ccc1Nc1nc(Cc2c(Cl)cccc2Cl)cc2cn[nH]c(=O)c12 [Example 16, 7-(2,6-dichlorobenzyl)-5-({2-methoxy-4-[4-(3-methylbutyl)piperazin-1-yl]phenyl}amino)pyrido[3,4-d]pyridazin-4(3H)-one] | > 4700
17 | COc1cc(CCN2CCCC2)ccc1Nc1nc(Cc2c(Cl)cccc2Cl)cc2cn[nH]c(=O)c12 [Example 17, 7-(2,6-dichlorobenzyl)-5-({2-methoxy-4-[2-(pyrrolidin-1-yl)ethyl]phenyl}amino)pyrido[3,4-d]pyridazin-4(3H)-one] | 6
18 | COc1cc(CC(=O)N2CCCC2)ccc1Nc1nc(Cc2c(Cl)cccc2Cl)cc2cn[nH]c(=O)c12 [Example 18, 7-(2,6-dichlorobenzyl)-5-({2-methoxy-4-[2-oxo-2-(pyrrolidin-1-yl)ethyl]phenyl}amino)pyrido[3,4-d]pyridazin-4(3H)-one] | 3100
19 | COc1cc(N2CCN(C(=O)CC(C)C)CC2)ccc1Nc1nc(Cc2c(Cl)cccc2Cl)cc2cn[nH]c(=O)c12 [Example 19, 7-(2,6-dichlorobenzyl)-5-({2-methoxy-4-[4-(3-methylbutanoyl)piperazin-1-yl]phenyl}amino)pyrido[3,4-d]pyridazin-4(3H)-one] | > 4700
20 | O=c1[nH]ncc2cc(Cc3c(Cl)cccc3Cl)nc(Nc3cc(F)c(N4CCNCC4)cc3F)c12 [Example 20, 7-(2,6-dichlorobenzyl)-5-{[2,5-difluoro-4-(piperazin-1-yl)phenyl]amino}pyrido[3,4-d]pyridazin-4(3H)-one] | 3
21 | Cc1cc(N2CCNCC2)cc(C)c1Nc1nc(Cc2c(Cl)cccc2Cl)cc2cnnc(O)c12 [Example 21, 7-(2,6-dichlorobenzyl)-5-{[2,6-dimethyl-4-(piperazin-1-yl)phenyl]amino}pyrido[3,4-d]pyridazin-4-ol] | 368
22 | COc1cc(N2CCNCC2)ccc1Nc1nc(Nc2ccccc2S(=O)(=O)C(C)C)cc2cn[nH]c(=O)c12 [Example 22, 5-{[2-methoxy-4-(piperazin-1-yl)phenyl]amino}-7-{[2-(propan-2-ylsulfonyl)phenyl]amino}pyrido[3,4-d]pyridazin-4(3H)-one] | 2
23 | COc1cc(N2CCNCC2)ccc1Nc1nc(NC2=N[C@H](C(C)C)CO2)cc2cnnc(O)c12 [Example 23, 5-{[2-methoxy-4-(piperazin-1-yl)phenyl]amino}-7-{[(4R)-4-(propan-2-yl)-4,5-dihydro-1,3-oxazol-2-yl]amino}pyrido[3,4-d]pyridazin-4-ol] | 21
24 | COc1cc(N2CCNCC2)ccc1Nc1nc(Nc2ccccc2Cl)cc2cn[nH]c(=O)c12 [Example 24, 7-[(2-chlorophenyl)amino]-5-{[2-methoxy-4-(piperazin-1-yl)phenyl]amino}pyrido[3,4-d]pyridazin-4(3H)-one] | 4
